# System: MV-4-11 cells
# Experiment: Gene expression microarray analysis (Affymetrix PrimeView) and GSEA
# Type: cell-based, human
# Design: RFU PODN (11730768_x_at) / Fold change /veh PODN (11730768_x_at) / RFU LINC00158 (11744669_a_at) / Fold change /veh LINC00158 (11744669_a_at) / RFU DUSP10 (11751237_a_at) / Fold change /veh DUSP10 (11751237_a_at) / RFU ID3 (11757404_x_at) / Fold change /veh ID3 (11757404_x_at) / RFU PLEKHG5 (11737974_s_at) / Fold change /veh PLEKHG5 (11737974_s_at) / RFU LRRC4B (11730491_at) / Fold change /veh LRRC4B (11730491_at) / RFU GIMAP4 (11747438_a_at) / Fold change /veh GIMAP4 (11747438_a_at) / RFU KRT8 (11758183_x_at) / Fold change /veh KRT8 (11758183_x_at) / RFU CNN1 (11734310_a_at) / Fold change /veh CNN1 (11734310_a_at) / RFU VPS37D (11726825_at) / Fold change /veh VPS37D (11726825_at) / RFU C10orf10 (11716522_x_at) / Fold change /veh C10orf10 (11716522_x_at) / RFU KIR2DL2 /// KIR2DL4 /// KIR2DL5A /// KIR2DL5B /// KIR2DS1 /// KIR2DS2 /// KIR2DS3 /// KIR2DS4 /// KIR3DL3 /// KIR3DL3 /// KIR3DS1 (11738374_at) / Fold change /veh KIR2DL2 /// KIR2DL4 /// KIR2DL5A /// KIR2DL5B /// KIR2DS1 /// KIR2DS2 /// KIR2DS3 /// KIR2DS4 /// KIR3DL3 /// KIR3DL3 /// KIR3DS1 (11738374_at) / RFU C1QL1 (11718748_at) / Fold change /veh C1QL1 (11718748_at) / RFU TMPRSS4 (11747572_a_at) / Fold change /veh TMPRSS4 (11747572_a_at) / RFU HAMP (11756126_x_at) / Fold change /veh HAMP (11756126_x_at) / RFU RNFT2 (11725882_a_at) / Fold change /veh RNFT2 (11725882_a_at) / RFU NR4A2 (11747474_a_at) / Fold change /veh NR4A2 (11747474_a_at) / RFU ABCC12 (11746883_a_at) / Fold change /veh ABCC12 (11746883_a_at) / RFU TMEM136 (11760407_x_at) / Fold change /veh TMEM136 (11760407_x_at) / RFU CLDN22 /// WWC2 (11732394_at) / Fold change /veh CLDN22 /// WWC2 (11732394_at) / RFU HLA-DPB1 (11760878_x_at) / Fold change /veh HLA-DPB1 (11760878_x_at) / RFU SPINT1 (11716480_a_at) / Fold change /veh SPINT1 (11716480_a_at) / RFU GAP43 (11754022_s_at) / Fold change /veh GAP43 (11754022_s_at) / RFU A4GNT (11735810_at) / Fold change /veh A4GNT (11735810_at) / RFU PRB3 (11715151_x_at) / Fold change /veh PRB3 (11715151_x_at) / RFU TUBB4B (11761932_at) / Fold change /veh TUBB4B (11761932_at) / RFU CAPN14 (11732068_a_at) / Fold change /veh CAPN14 (11732068_a_at) / RFU TMCC2 (11721928_a_at) / Fold change /veh TMCC2 (11721928_a_at) / RFU IRGQ (11745062_a_at) / Fold change /veh IRGQ (11745062_a_at) / RFU FAM174B (11720279_a_at) / Fold change /veh FAM174B (11720279_a_at) / RFU TMPRSS4 (11748680_a_at) / Fold change /veh TMPRSS4 (11748680_a_at) / RFU FAM212B (11763350_a_at) / Fold change /veh FAM212B (11763350_a_at) / RFU PLEKHG5 (11743358_a_at) / Fold change /veh PLEKHG5 (11743358_a_at) / RFU ZSCAN30 (11745921_a_at) / Fold change /veh ZSCAN30 (11745921_a_at) / RFU CMKLR1 (11741424_a_at) / Fold change /veh CMKLR1 (11741424_a_at) / RFU LOC101060620 /// MAPK8IP1 (11723275_at) / Fold change /veh LOC101060620 /// MAPK8IP1 (11723275_at) / RFU SPTSSB (11747773_x_at) / Fold change /veh SPTSSB (11747773_x_at) / RFU PRSS12 (11739890_at) / Fold change /veh PRSS12 (11739890_at) / RFU BIN1 (11741810_x_at) / Fold change /veh BIN1 (11741810_x_at) / RFU WNT11 (11732464_a_at) / Fold change /veh WNT11 (11732464_a_at) / RFU C10orf10 (11716521_a_at) / Fold change /veh C10orf10 (11716521_a_at) / RFU C5orf56 (11738089_at) / Fold change /veh C5orf56 (11738089_at) / RFU CYB561 (11721691_x_at) / Fold change /veh CYB561 (11721691_x_at) / RFU ANKRD19P (11752326_a_at) / Fold change /veh ANKRD19P (11752326_a_at) / RFU OR2T12 /// OR2T33 /// OR2T8 (11738714_s_at) / Fold change /veh OR2T12 /// OR2T33 /// OR2T8 (11738714_s_at) / RFU VCAN (11748164_a_at) / Fold change /veh VCAN (11748164_a_at) / RFU JSRP1 (11732532_at) / Fold change /veh JSRP1 (11732532_at) / RFU KRTAP10-11 (11738290_x_at) / Fold change /veh KRTAP10-11 (11738290_x_at) / RFU MYO3A (11730013_a_at) / Fold change /veh MYO3A (11730013_a_at) / RFU EBF3 (11725865_a_at) / Fold change /veh EBF3 (11725865_a_at) / RFU CAMK2N1 (11719241_x_at) / Fold change /veh CAMK2N1 (11719241_x_at) / RFU C5orf56 (11738088_a_at) / Fold change /veh C5orf56 (11738088_a_at) / RFU OLFML3 (11715873_a_at) / Fold change /veh OLFML3 (11715873_a_at) / RFU LOC100653217 /// NTM (11731650_a_at) / Fold change /veh LOC100653217 /// NTM (11731650_a_at) / RFU MAPK11 (11762145_a_at) / Fold change /veh MAPK11 (11762145_a_at) / RFU FIZ1 (11724087_x_at) / Fold change /veh FIZ1 (11724087_x_at) / RFU OASL (11726364_x_at) / Fold change /veh OASL (11726364_x_at) / RFU SOX15 (11748057_x_at) / Fold change /veh SOX15 (11748057_x_at) / RFU CD79A (11719716_a_at) / Fold change /veh CD79A (11719716_a_at) / RFU HIST1H1D (11736915_at) / Fold change /veh HIST1H1D (11736915_at) / RFU CASKIN2 (11723855_a_at) / Fold change /veh CASKIN2 (11723855_a_at) / RFU LOC730098 (11760151_x_at) / Fold change /veh LOC730098 (11760151_x_at) / RFU OR4N2 (11742367_at) / Fold change /veh OR4N2 (11742367_at) / RFU PRRT2 (11749266_a_at) / Fold change /veh PRRT2 (11749266_a_at) / RFU SNX32 (11753110_a_at) / Fold change /veh SNX32 (11753110_a_at) / RFU CDHR5 (11726645_a_at) / Fold change /veh CDHR5 (11726645_a_at) / RFU RCAN1 (11760418_a_at) / Fold change /veh RCAN1 (11760418_a_at) / RFU FAM167A (11723789_a_at) / Fold change /veh FAM167A (11723789_a_at) / RFU FAM26E (11764081_at) / Fold change /veh FAM26E (11764081_at) / RFU ISYNA1 (11749810_s_at) / Fold change /veh ISYNA1 (11749810_s_at) / RFU ACY1 (11761880_at) / Fold change /veh ACY1 (11761880_at) / RFU 11764098_at / Fold change /veh 11764098_at / RFU SAMD14 (11745864_x_at) / Fold change /veh SAMD14 (11745864_x_at) / RFU NPB (11741838_a_at) / Fold change /veh NPB (11741838_a_at) / RFU TMPRSS6 (11731388_a_at) / Fold change /veh TMPRSS6 (11731388_a_at) / RFU KRTAP10-2 (11738614_at) / Fold change /veh KRTAP10-2 (11738614_at) / RFU ARHGAP8 /// PRR5-ARHGAP8 (11727945_x_at) / Fold change /veh ARHGAP8 /// PRR5-ARHGAP8 (11727945_x_at) / RFU KRTAP5-7 /// NADSYN1 (11734609_at) / Fold change /veh KRTAP5-7 /// NADSYN1 (11734609_at) / RFU RASL12 (11751679_a_at) / Fold change /veh RASL12 (11751679_a_at) / RFU CDKN2B (11736163_a_at) / Fold change /veh CDKN2B (11736163_a_at) / RFU PRF1 (11729649_at) / Fold change /veh PRF1 (11729649_at) / RFU, ZNF638 /// ZNF638-IT1 / Fold change vs veh, ZNF638 /// ZNF638-IT1 / RFU, PANK3 / Fold change vs veh, PANK3 / RFU, SH3YL1 / Fold change vs veh, SH3YL1 / RFU, ZEB2 / Fold change vs veh, ZEB2 / RFU, NRIP1 / Fold change vs veh, NRIP1 / RFU, PTTG1IP / Fold change vs veh, PTTG1IP / RFU, CAPN2 / Fold change vs veh, CAPN2 / RFU, MED14 / Fold change vs veh, MED14 / RFU, SNORA58 / Fold change vs veh, SNORA58 / RFU, C1orf63 / Fold change vs veh, C1orf63 / RFU, LRRFIP1 / Fold change vs veh, LRRFIP1 / RFU, NDUFAF7 / Fold change vs veh, NDUFAF7 / RFU, SLC12A2 / Fold change vs veh, SLC12A2 / RFU, IBTK / Fold change vs veh, IBTK / RFU, ESF1 / Fold change vs veh, ESF1 / Fold change vs veh, TMEM50B / RFU, TAOK1 / Fold change vs veh, TAOK1 / RFU, ACBD3 / Fold change vs veh, ACBD3 / RFU, TMA16 / Fold change vs veh, TMA16 / RFU, RWDD3 / Fold change vs veh, RWDD3 / RFU, BCAT1 / Fold change vs veh, BCAT1 / RFU, EDEM3 / Fold change vs veh, EDEM3 / RFU, TMEM33 / Fold change vs veh, TMEM33 / RFU, WDR75 / Fold change vs veh, WDR75 / RFU, AHCTF1 / Fold change vs veh, AHCTF1 / RFU, TFRC / Fold change vs veh, TFRC / RFU, ZDHHC17 / Fold change vs veh, ZDHHC17 / RFU, NOM1 / Fold change vs veh, NOM1 / RFU, ARL8B / Fold change vs veh, ARL8B / RFU, ZBTB11 / Fold change vs veh, ZBTB11 / RFU, TAMM41 / Fold change vs veh, TAMM41 / RFU, KIAA1704 /// LOC100996395 / Fold change vs veh, KIAA1704 /// LOC100996395 / RFU, ING1 / Fold change vs veh, ING1 / RFU, TRMT61B / Fold change vs veh, TRMT61B / RFU, FUBP3 / Fold change vs veh, FUBP3 / RFU, TP53 / Fold change vs veh, TP53 / RFU, TNKS2 / Fold change vs veh, TNKS2 / RFU, ZFP14 / Fold change vs veh, ZFP14 / RFU, ACTR2 / Fold change vs veh, ACTR2 / RFU, PPP3R1 / Fold change vs veh, PPP3R1 / RFU, PIK3R1 / Fold change vs veh, PIK3R1 / RFU, HNRNPA1 / Fold change vs veh, HNRNPA1 / RFU, RNF170 / Fold change vs veh, RNF170 / RFU, ZNF28 / Fold change vs veh, ZNF28 / RFU, RNGTT / Fold change vs veh, RNGTT / RFU, OGT / Fold change vs veh, OGT / RFU, BRD1 / Fold change vs veh, BRD1 / RFU, MARS / Fold change vs veh, MARS / RFU, ZNF655 / Fold change vs veh, ZNF655 / RFU, FAHD1 / Fold change vs veh, FAHD1 / RFU, BDP1 / Fold change vs veh, BDP1 / RFU, LRRCC1 / Fold change vs veh, LRRCC1 / RFU, ARID1A / Fold change vs veh, ARID1A / RFU, ZNF146 / Fold change vs veh, ZNF146 / RFU, ZNF330 / Fold change vs veh, ZNF330 / RFU, GPN3 / Fold change vs veh, GPN3 / RFU, C9orf123 / Fold change vs veh, C9orf123 / RFU, N4BP2L2 / Fold change vs veh, N4BP2L2 / RFU, ARFIP1 / Fold change vs veh, ARFIP1 / RFU, FAM179B / Fold change vs veh, FAM179B / RFU, BCL10 / Fold change vs veh, BCL10 / RFU, UHRF1BP1L / Fold change vs veh, UHRF1BP1L / RFU, BET1 / Fold change vs veh, BET1 / RFU, CNOT2 / Fold change vs veh, CNOT2 / RFU, ZNF268 / Fold change vs veh, ZNF268 / Fold change vs veh, ZNF507 / RFU, DGCR2 / Fold change vs veh, DGCR2 / RFU, WDSUB1 / Fold change vs veh, WDSUB1 / Fold change vs veh, HSP90B1 /// MIR3652 / RFU, ADSS / Fold change vs veh, ADSS / RFU, GK / Fold change vs veh, GK / RFU, ZNF148 / Fold change vs veh, ZNF148 / RFU, TAF9 / Fold change vs veh, TAF9 / RFU, SLC1A5 / Fold change vs veh, SLC1A5 / RFU, SLMO2 / Fold change vs veh, SLMO2 / RFU, ABCC4 / Fold change vs veh, ABCC4 / RFU, LOC101060439 /// RAP1B / Fold change vs veh, LOC101060439 /// RAP1B / RFU, RFX7 / Fold change vs veh, RFX7 / RFU, GTPBP10 / Fold change vs veh, GTPBP10 / RFU, CNEP1R1 / Fold change vs veh, CNEP1R1 / RFU, BIVM-ERCC5 /// ERCC5 / Fold change vs veh, BIVM-ERCC5 /// ERCC5 / RFU, ILF3 / Fold change vs veh, ILF3 / RFU 11762660_at / Fold change /veh 11762660_at / RFU VCAN (11757783_s_at) / Fold change /veh VCAN (11757783_s_at) / RFU DDX43 (11728927_at) / Fold change /veh DDX43 (11728927_at) / RFU KRT8 (11758188_x_at) / Fold change /veh KRT8 (11758188_x_at) / RFU NKD1 (11759106_at) / Fold change /veh NKD1 (11759106_at) / RFU SRD5A1 (11742802_a_at) / Fold change /veh SRD5A1 (11742802_a_at) / RFU TPSAB1 /// TPSB2 (11721975_s_at) / Fold change /veh TPSAB1 /// TPSB2 (11721975_s_at) / RFU GSTM3 (11746129_a_at) / Fold change /veh GSTM3 (11746129_a_at) / RFU IL23R (11737362_x_at) / Fold change /veh IL23R (11737362_x_at) / RFU TMEM51 (11727254_a_at) / Fold change /veh TMEM51 (11727254_a_at) / RFU PIWIL2 (11732686_x_at) / Fold change /veh PIWIL2 (11732686_x_at) / RFU ORM1 (11744905_x_at) / Fold change /veh ORM1 (11744905_x_at) / RFU CCDC152 (11743942_at) / Fold change /veh CCDC152 (11743942_at) / RFU ECM1 (11717891_a_at) / Fold change /veh ECM1 (11717891_a_at) / RFU IL23R (11748794_a_at) / Fold change /veh IL23R (11748794_a_at) / RFU TNFAIP8L3 (11732012_x_at) / Fold change /veh TNFAIP8L3 (11732012_x_at) / RFU MBOAT4 (11741988_at) / Fold change /veh MBOAT4 (11741988_at) / RFU 11764193_at / Fold change /veh 11764193_at / RFU TMEM53 (11763286_at) / Fold change /veh TMEM53 (11763286_at) / RFU MAGEB2 (11727129_at) / Fold change /veh MAGEB2 (11727129_at) / RFU TMEM200A (11744735_a_at) / Fold change /veh TMEM200A (11744735_a_at) / RFU CCDC152 (11751479_a_at) / Fold change /veh CCDC152 (11751479_a_at) / RFU FAM211A (11726209_a_at) / Fold change /veh FAM211A (11726209_a_at) / RFU RGS16 (11746705_a_at) / Fold change /veh RGS16 (11746705_a_at) / RFU VCAN (11755009_s_at) / Fold change /veh VCAN (11755009_s_at) / RFU RHOB (11743442_s_at) / Fold change /veh RHOB (11743442_s_at) / RFU RGS16 (11720943_a_at) / Fold change /veh RGS16 (11720943_a_at) / RFU RGS16 (11720944_at) / Fold change /veh RGS16 (11720944_at) / RFU, VPS4B / Fold change vs veh, VPS4B / RFU, CREB1 / Fold change vs veh, CREB1 / RFU, DNAJC13 / Fold change vs veh, DNAJC13 / RFU, GNAQ / Fold change vs veh, GNAQ / RFU, CDK5R1 / Fold change vs veh, CDK5R1 / RFU, ZRANB3 / Fold change vs veh, ZRANB3 / RFU, CUL4A / Fold change vs veh, CUL4A / RFU, CCNY / Fold change vs veh, CCNY / RFU, UFL1 / Fold change vs veh, UFL1 / RFU, COG3 / Fold change vs veh, COG3 / RFU, DIAPH2 / Fold change vs veh, DIAPH2 / RFU, SKA2 / Fold change vs veh, SKA2 / RFU, AFF3 / Fold change vs veh, AFF3 / RFU, LMF1 / Fold change vs veh, LMF1 / RFU, IPO11 / Fold change vs veh, IPO11 / RFU, DFFB / Fold change vs veh, DFFB / RFU, FOXP1 / Fold change vs veh, FOXP1 / RFU, CARD8 / Fold change vs veh, CARD8 / RFU, STRN3 / Fold change vs veh, STRN3 / RFU, ADK / Fold change vs veh, ADK / RFU, RASSF2 / Fold change vs veh, RASSF2 / RFU, WIPF1 / Fold change vs veh, WIPF1 / RFU, LARP1B / Fold change vs veh, LARP1B / RFU, RASA1 / Fold change vs veh, RASA1 / RFU, RB1 / Fold change vs veh, RB1 / RFU, PPFIA1 / Fold change vs veh, PPFIA1 / RFU, MAT2A / Fold change vs veh, MAT2A / RFU, CCT5 / Fold change vs veh, CCT5 / RFU, WDR92 / Fold change vs veh, WDR92 / RFU, CUX1 / Fold change vs veh, CUX1 / RFU, TTC7A / Fold change vs veh, TTC7A / RFU, TMEM135 / Fold change vs veh, TMEM135 / RFU, DEPTOR / Fold change vs veh, DEPTOR / RFU, CPM / Fold change vs veh, CPM / RFU, DNAJB6 / Fold change vs veh, DNAJB6 / RFU, CACNA2D3 / Fold change vs veh, CACNA2D3 / RFU, DTX4 / Fold change vs veh, DTX4 / RFU, TFCP2 / Fold change vs veh, TFCP2 / RFU, GMCL1 /// GMCL1P1 / Fold change vs veh, GMCL1 /// GMCL1P1 / RFU, AEBP2 / Fold change vs veh, AEBP2 / RFU, SNHG1 /// SNORD22 /// SNORD25 /// SNORD26 /// SNORD27 /// SNORD28 /// SNORD29 /// SNORD31 / Fold change vs veh, SNHG1 /// SNORD22 /// SNORD25 /// SNORD26 /// SNORD27 /// SNORD28 /// SNORD29 /// SNORD31 / Fold change (Aza/veh), C12orf56 (ProbeSet 11735607_a_at) / Fold change (ACY-1035/veh), C12orf56 (ProbeSet 11735607_a_at) / Fold change (Aza/veh), FGFR1OP (ProbeSet 11751329_s_at) / Fold change (ACY-1035/veh), FGFR1OP (ProbeSet 11751329_s_at) / Fold change (Aza/veh), VPS36 (ProbeSet 11739960_a_at) / Fold change (ACY-1035/veh), VPS36 (ProbeSet 11739960_a_at) / RFU SYPL1 (11715823_x_at) / Fold change /veh SYPL1 (11715823_x_at) / RFU IGFBP7 (11715501_s_at) / Fold change /veh IGFBP7 (11715501_s_at) / RFU REEP3 (11722064_at) / Fold change /veh REEP3 (11722064_at) / RFU IGLL1 (11728026_x_at) / Fold change /veh IGLL1 (11728026_x_at): dose or concentration left out as unconfirmed
# Conditions: MV-4-11 cells, 48 hours
compound,measurement,value
Nc1ncn([C@@H]2O[C@H](CO)[C@@H](O)[C@H]2O)c(=O)n1 [azacitidine],RFU KRT8 (11758183_x_at),20.69 RFU

# Source: article PMC5218480 (PLoS ONE, 2017)
